Where two headings read alike, the source gives them in different places.
How the values were obtained:
[1] = test system: human COLO 205 colon tumors; assay type: in vivo, female BALB/c nude mice; details: 4 mg/kg, day 32
Protocol: Female or male BALB/c nu/nu (nude) mice are kept under sterile conditions (10 to 12 mice per Type III cage) with free access to food and water. Mice weigh between 20 and 25 grams at the time of tumor implantation. Tumors are established by subcutaneous injection of cells (minimum 2×10^6 cells in 100 μl PBS or medium) in carrier mice (4-8 mice per cell line). The resulting tumors are serially passaged for a minimum of three consecutive transplantations prior to start of treatment. Tumor fragments (approx. 25 mg) are implanted s.c. into the left flank of animals with a 13-gauge trocar needle while the mice are exposed to Forene (Abbott, Switzerland) anesthesia.
Tumor growth and body weights are monitored once or twice weekly. All treatments are administered intravenously (i.v.) and are initiated when a mean tumor volume of approximately 100 to 250 mm^3 is attained, depending upon the tumor type. Tumor volumes are determined using the formula […] (see Cancer Chemother. Pharmacol. 24:148-154, [1989]). Treatments with epothilone B vary the dose and the frequency of administration. Comparator agents are administered according to previously determined optimal treatment regimens. In addition to presenting changes in tumor volumes over the course of treatment, antitumor activity is expressed as T/C% (mean increase of tumor volumes of treated animals divided by the mean increase of tumor volumes of control animals multiplied by 100). Tumor regression (%) represents the smallest mean tumor volume compared to the mean tumor volume at the start of treatment, according to the formula Regression (%)=(1−Vend/Vstart)×100 (Vend=final mean tumor volume, Vstart=mean tumor volume at the start of treatment. Any animals in which the tumor has reached a size exceeding approximately 1.5 to 2.5 cm^3 are sacrificed. Details can be found below.
Tumor fragments of approximately 25 mg are implanted into the left flank of each female nude mouse (n=7 per group); a subcutaneous estrogen pellet is placed on the opposite flank. Treatments are started on day 14 after tumor transplantation. epothilone B is administered at 4 mg/kg, i.v., either once or once per week (days 14, 21, 28) or every second week (days 14 and 28). 5-fluorouracil is administered i.v. at 75 mg/kg on days 14, 21, 28. Data presented are from animals surviving to day 32, four days after the last treatments. Antitumor activity is expressed as T/C% (mean increase of tumor volumes of treated animals divided by the mean increase of tumor volumes of control animals multiplied by 100). Tumor regression (%) represents the final mean tumor volume compared to the mean tumor volume at the start of treatment. Changes (A) in tumor volumes represent the tumor volume on the last treatment day minus the tumor volume on the first treatment day.

[2] = test system: A549 non small cell lung tumors
Protocol: 3-10 million cells are implanted s.c. into the right axillary (lateral) region of outbred athymic (nu/nu) mice, and are allowed to grow until a tumor volume of approximately 100 mm^3 is established. Epothilone B is formulated in 1% DMSO in 5% glucose in distilled water (D5W), and administered i.v. either once only, once per week, 3 times per week, or 5 times per week. Positive controls are carried out with clinical formulations of TAXOL® diluted 6 fold with D5W and administered i.v. 3×/week.
Antitumor activity is expressed as % T/C (comparing Δ tumor volumes for treatment group to vehicle control group) at the end of the experiment. Regressions are calculated using the formula: −(T/T0−1)×100% , where T is the tumor volume for the treatment group at the end of the experiment, and T0 is the tumor volume at the beginning of the experiment. Statistical significance is evaluated using a one-tailed Student's t-test.
Treatments are started on day 16 post implantation (10 million cells/animal). Epothilone B is administered i.v. once at 6 mg/kg (day 16), once weekly at 4 mg/kg (days 16, 23, and 30), three times per week at 1.5 mg/kg (days 16, 18, 21, 23, 25, 28, 30, 32, and 35), or five times per week at 0.5 mg/kg (days 16-18, 21-25, 28-32, and 35-36). TAXOL® is administered i.v. three times per week at 20 mg/kg (days 16, 18, 21, 23, 25, 28, 30, 32, and 35) as split doses of 10 mg/kg given one hour apart. Vehicle control (1% DMSO/D5W) is administered i.v. three times per week (days 16, 18, 21, 23, 25, 28, 30, 32, and 35). All final data are recorded on day 37. A single asterisk (*) indicates p<0.05, and a double asterisk (**) indicates p<0.01, using a one-tailed Student's t-Test.

[3] = GLP toxicology study in dogs; assay type: in vivo; details: dog
Protocol: The starting dose level is 0.3 mg/m^2. This dose is calculated as one-third of the toxic dose low (TDL) in the most sensitive species studied which, for epothilone B, is the dog. […] Using a factor of 20 to convert mg/kg in the dog to mg/m^2 in humans, this starting dose is calculated as: […]

[4] = test system: human PC-3M prostate carcinoma cells; experiment: Antitumor effect against orthotopically injected PC-3M cells; assay type: in vivo, male BALB/c nude mice
Protocol: Human prostate carcinoma PC-3M cells (1×10^6 cells per 20 μl phosphate buffered saline) are injected into the left […] of the prostate of each animal (n=6-9/group) according the method previously described (see Stephenson et al., J. Natl. Cancer Inst. 84, 951-7 (1992)). Treatment is started on day 14 after cell injection. At this time point a mean tumor weight of ˜20 mg is established. Epothilone B is administered either once or once weekly. Mice are sacrificed 42 days post tumor inoculation, and the prostates are carefully removed, dissected free of adhering tissue and weighed. […] Mesenteric lymph nodes are examined for the presence of metastases, dissected free of adhering tissue and weighed.
Tumor weight and body weights are monitored once or twice weekly. All treatments are administered intravenously (i.v.) and are initiated 14 days post cell injection. Treatment with epothilone B varies the dose and frequency of administration. Antitumor activity is expressed as T/C% (mean tumor weight of treated animals divided by the mean tumor weight of control animals multiplied by 100).
1×10^6 PC-3M cells in 20 μL of PBS are injected into the […] of the prostate of each male nude mouse (n=9 per group). Treatments are started on day 14 after tumor cell injection. epothilone B is administered i.v., once at 6 or 8 mg/kg, or once per week at 4 or 5 mg/kg. Antitumor activity is expressed as T/C% (mean tumor weight of treated animals divided by the mean of tumor weight of control animals multiplied by 100). Differences in body weights consider only animals surviving to the end of the experiment (day 42). Statistical analyses on A body weight uses paired t-tests comparing body weights before treatment to the end of treatment; mice weigh˜20-25 g at the start of treatment. Not significant is indicated by the abbreviation ,ns”.

[5] = Determination of the single i.v. dose MTD in nude mice; assay type: in vivo, female BALB/c nude mice; details: mean ± SD
Protocol: For the MTD determination, female BALB/c nude mice or BALB/c mice (obtained from Novartis Animal Farm, Sisseln, Switzerland) are treated once intravenously with epothilone B (n=3 per dose group). The dosage is increased (2, 4, 6, 8, 10 and 12 mg/kg) and the mice are observed for the presentation of overt toxic effects for 10 days after drug treatment.
Epothilone B is given as a single i.v. bolus dose at 2, 4, 6, 8, 10 or 12 mg/kg. Survival and body weights of the mice are monitored daily. Changes (A) in body weights are determined comparing the last measured body weight to that before treatment.

With `C/C(=C\c1csc(C)n1)[C@@H]1C[C@@H]2O[C@]2(C)CCC[C@H](C)[C@H](O)[C@@H](C)C(=O)C(C)(C)[C@@H](O)CC(=O)O1` [epothilone B] the T/C ([1]; i.v. every 7 days) was “Regres-”, the T/C ([1]; i.v. every 14 days) was “Regres-” and the T/C ([1]; i.v. once) was “Regres-”. For the same molecule, the body weight loss ([2]; 0.5 mg/kg i.v. 5x/week) was 23%, the Dead/Total ([2]; 1.5 mg/kg i.v. 3x/week) was “all animals have to be euthanatized in the first week of the experiment due to toxicity” and the body weight loss ([2]; 4 mg/kg i.v. 1x/week) was 13%. For the same molecule, the “% Regression” value ([2]; 6 mg/kg i.v. once, day 37) was “none”, the “% T/C” value ([2]; 6 mg/kg i.v. once, day 37) was 41% and the Dead/Total ([2]; 6 mg/kg, i.v. once) was 0/8. The “toxic dose low (TDL)” value ([3]; most sensitive species, estimated) was ~0.5 mg/kg, the Mortalities ([3]; 0.1 mg/kg, repeated once 3 weeks later (lower of the 2 doses)) was “no mortalities” and the “Δ Body Weight” value ([4]; 4 mg/kg, i.v. once per week) was -1.2 g. For the same molecule, the “Δ Body Weight” value ([4]; 5 mg/kg, i.v. once per week) was -6.8 g, the “Δ Body Weight” value ([4]; 6 mg/kg, i.v. once) was -1.4 g and the “Δ Body Weight” value ([4]; 8 mg/kg, i.v. once) was -5.2 g. For the same molecule, the “Body Weight Δ” value ([5]; 2 mg/kg single i.v. bolus) was 1.0 ± 0.5 g, the “Body Weight Δ” value ([5]; 4 mg/kg single i.v. bolus) was -0.4 ± 0.6 g and the “Body Weight Δ” value ([5]; 6 mg/kg single i.v. bolus) was -1.0 ± 0.5 g. For the same molecule, the “Body Weight Δ” value ([5]; 8 mg/kg single i.v. bolus) was -3.8 ± 2.7 g, the “Body Weight Δ” value ([5]; 10 mg/kg single i.v. bolus) was -5.6 ± 3.3 g and the “Body Weight Δ” value ([5]; 12 mg/kg single i.v. bolus) was -5.1 ± 0.6 g.

Reference: patent publication US20040024033A1 (priority 1998, published 2004)
